# Assay results reported in US20210340502A1, “Generation of Post-Mitotic Migratory Cortical Interneurons” (The McLean Hospital Corporation, priority 2018, published 2021).
# “Also recorded” adds a separate entry of the source.
# Experiments:
# MGE progenitors = assay: KI67+ proliferating MGE progenitors after chemical treatment (immunocytochemistry and cell counting); type: cell-based; details: for proportion of proliferating MGE progenitors (in words): 3 week-old MGE progenitors treated for a week; for Percentage of proliferating cells (Average ± SEM, N): KI67+ cells, 3 week-old MGE progenitors treated 1 week, 20 μM FdU, 1% CultureOne, 10 mM DAPT, 2 μM PD0332991 or combination (CDP)
# Method: For chemical treatment of cINs, the differentiated progenitors were seeded on PLO/FN-coated surface at 3 weeks after differentiation, and cultured in B27GB media without or with each chemical, 20 μM FdU (Sigma-Aldrich, Natick, Mass., USA), 1% CultureOne (C, Thermo Fisher, Waltham, Mass., USA), […] (D, Sigma-Aldrich, Natick, Mass., USA), and 2 μM PD0332991 (P, Sigma-Aldrich, Natick, Mass., US), or with combination of CultureOne, DAPT and PD0332991 (CDP) for the time period designated in each Figure.
# Immunocytochemistry and cell counting. cINs on coverslips were fixed using 4% paraformaldehyde (PFA, Electron Microscopy Sciences, Hatfield, Pa.) for 15 min, washed with PBS and used for staining. The spheres at different differentiation stages were fixed by 4% PFA for 15 min, rinsed with PBS, cryo-protected in the 30% sucrose (Thermo Fisher, Waltham, Mass., USA) overnight at 4° C., mounted on the chuck using the O.C.T. Compound (Thermo Fisher, Waltham, Mass., USA) and cryosectioned at 40 μm using a Leica CM1850 cryostat (Leica Biosystem, Buffalo Grove, Ill., USA). Fixed cells or sphere sections were incubated with blocking/permeablization buffer (PBS with 10% normal serum and 0.1% Triton X-100) for 10 min. The samples were then incubated in primary antibodies in antibody dilution buffer (PBS containing 2% normal serum) overnight at 4° C. After washing with PBS, cells were incubated with fluorescently labeled secondary antibodies and DAPI (Invitrogen, Waltham, Mass., USA)) in antibody dilution buffer for 1 h at room temperature. Following the PBS wash, the samples were mounted with Fluoromount-G (SouthernBiotech, Birmingham, Ala., USA).
# For cell counting, multi point function in Image J software (Version 1.51 p, NIH, Bethesda, Md., USA) was used. Percentage of positive cells for each marker was calculated by dividing by DAPI-stained total nuclei number from at least 3 separate biological replicates. For each staining, a total of at least 500 cells were counted for each group.
# cIN organoids = assay: Passaging of cIN organoids with Trehalose; type: cell-based, human
# Method: For passaging cINs, cells were trypsinized by 0.05% trypsin (Thermo Fisher, Waltham, Mass., USA) supplemented with or without 10 mM Trehalose (Sigma-Aldrich, Natick, Mass., USA). After 5 minutes' incubation at 37° C., the spheres were triturated to dissociate the spheres. An equal volume of DMEM media with 10% FBS (Hyclone, Marlborough, Mass., USA) was added to neutralize Trypsin. In addition, Turbo DNase (2 U/ml, Thermo Fisher, Waltham, Mass., USA) was added to help clear released DNAs from culture. The cells were then kept in the incubator for additional 15 min to remove any sticky DNA mass released during trituration. After incubation, the cells were centrifuged and resuspended by B27GB media with ROCK inhibitor. To exclude the dead cell cluster, the resuspended cells were filtered through a cell strainer cap (35 μm nylon mesh, Corning, N.Y., USA), and plated onto a PLO/FN-coated surface (Poly-L-Ornithine, 15 ug/ml, Sigma-Aldrich, Natick; Fibronectin, 10 ug/ml, Thermo Fisher, Waltham, Mass., USA) for the subsequent experiments.
# H9 cINs = assay: Cryopreservation of cINs with Trehalose in freezing media; type: cell-based, human
# Method: For cryopreservation, the trypsinized cells were resuspended in freezing media (FBS with 10% DMSO) with or without 100 mM Trehalose and were frozen slowly overnight in an insulated container at −80° C. deep freezer. After 24 hours, the stocks were moved to liquid nitrogen storage until further experiments. Frozen stocks were thawed quickly in a 37° C. water bath, transferred to 15 ml conical tubes with 5 ml media, centrifuged and resuspended in B27GB media with ROCK inhibitor for plating and further experiments.
Compound,proportion of proliferating MGE progenitors (in words) (MGE progenitors),"Percentage of proliferating cells (Average ± SEM, N) (MGE progenitors)","survival rate during passaging (cIN organoids; 6 weeks after differentiation, 10 mM Trehalose in trypsin)","increase in survival rate during passaging (cIN organoids; older organoids, after six months' differentiation)",survival of cryopreserved cINs after freeze-thaw (H9 cINs; 100 mM Trehalose in freezing media),"cIN phenotypes after freeze-thaw (H9 cINs; SOX6, GAD, β-TUBLIN three weeks after thawing)","viability during cryopreservation (H9 cINs; optimized condition, compared to the cINs passaged without cryopreservation) [%]"
C[C@H](NC(=O)Cc1cc(F)cc(F)c1)C(=O)N[C@H](C(=O)OC(C)(C)C)c1ccccc1 [DAPT],significantly reduced the proportion of proliferating progenitors; also recorded: worked well to control cell cycle exit of MGE cells,"8.835 ± 1.618, 4%",,,,,
"O=c1[nH]c(=O)n([C@H]2C[C@H](O)[C@@H](CO)O2)cc1F [FdU, 5-fluoro-2′-deoxyuridine]",did not influence the proportion of proliferating MGE progenitors; also recorded: not effective in reducing immature proliferating cell numbers,"31.719 ± 1.486, 4%",,,,,
CC(=O)c1c(C)c2cnc(Nc3ccc(N4CCNCC4)cn3)nc2n(C2CCCC2)c1=O [PD0332991],significantly reduced the proportion of proliferating progenitors; also recorded: effective in regulating MGE cell cycle exit,"5.160 ± 1.042, 4%",,,,,
OC[C@H]1O[C@H](O[C@H]2O[C@H](CO)[C@@H](O)[C@H](O)[C@H]2O)[C@H](O)[C@@H](O)[C@@H]1O [Trehalose],,,significantly increased the survival rate,much more pronounced,significantly increased survival,without affecting their phenotypes,65.27±8.97
